Measured values from ChEMBL document CHEMBL1140252, “Deoxyribosyl analogues of methionyl and isoleucyl sulfamate adenylates as inhibitors of methionyl-tRNA and isoleucyl-tRNA synthetases” (Bioorg Med Chem Lett, 2005).

How the values were obtained:
Isoleucine--tRNA ligase = Isoleucine--tRNA ligase (Escherichia coli K-12, UniProt P00956); assay: Inhibitory concentration against Escherichia coli Ile-tRNA synthetase
Methionine--tRNA ligase = Methionine--tRNA ligase (Escherichia coli K-12, UniProt P00959); assay: Inhibitory concentration against Escherichia coli Met-tRNA synthetase
Methionine--tRNA ligase, sequence (P00959 whole entry): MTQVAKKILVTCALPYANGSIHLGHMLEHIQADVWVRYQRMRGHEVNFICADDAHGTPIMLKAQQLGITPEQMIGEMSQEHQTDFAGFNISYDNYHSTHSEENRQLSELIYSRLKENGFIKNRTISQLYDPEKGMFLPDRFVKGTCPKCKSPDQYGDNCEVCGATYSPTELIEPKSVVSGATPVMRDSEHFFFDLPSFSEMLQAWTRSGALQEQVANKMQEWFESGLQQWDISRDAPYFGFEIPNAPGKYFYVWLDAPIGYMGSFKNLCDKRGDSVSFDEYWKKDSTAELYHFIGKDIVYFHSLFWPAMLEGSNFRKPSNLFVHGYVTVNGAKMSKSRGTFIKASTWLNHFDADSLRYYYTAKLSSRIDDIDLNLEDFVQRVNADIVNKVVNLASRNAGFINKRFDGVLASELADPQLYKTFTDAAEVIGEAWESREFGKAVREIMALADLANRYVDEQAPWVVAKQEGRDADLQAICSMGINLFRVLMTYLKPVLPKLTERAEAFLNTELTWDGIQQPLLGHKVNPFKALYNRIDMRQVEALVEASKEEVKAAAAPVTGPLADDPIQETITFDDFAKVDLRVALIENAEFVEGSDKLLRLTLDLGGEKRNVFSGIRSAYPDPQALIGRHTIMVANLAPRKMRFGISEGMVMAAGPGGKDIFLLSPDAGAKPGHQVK

Isoleucine--tRNA ligase, sequence (P00956 whole entry): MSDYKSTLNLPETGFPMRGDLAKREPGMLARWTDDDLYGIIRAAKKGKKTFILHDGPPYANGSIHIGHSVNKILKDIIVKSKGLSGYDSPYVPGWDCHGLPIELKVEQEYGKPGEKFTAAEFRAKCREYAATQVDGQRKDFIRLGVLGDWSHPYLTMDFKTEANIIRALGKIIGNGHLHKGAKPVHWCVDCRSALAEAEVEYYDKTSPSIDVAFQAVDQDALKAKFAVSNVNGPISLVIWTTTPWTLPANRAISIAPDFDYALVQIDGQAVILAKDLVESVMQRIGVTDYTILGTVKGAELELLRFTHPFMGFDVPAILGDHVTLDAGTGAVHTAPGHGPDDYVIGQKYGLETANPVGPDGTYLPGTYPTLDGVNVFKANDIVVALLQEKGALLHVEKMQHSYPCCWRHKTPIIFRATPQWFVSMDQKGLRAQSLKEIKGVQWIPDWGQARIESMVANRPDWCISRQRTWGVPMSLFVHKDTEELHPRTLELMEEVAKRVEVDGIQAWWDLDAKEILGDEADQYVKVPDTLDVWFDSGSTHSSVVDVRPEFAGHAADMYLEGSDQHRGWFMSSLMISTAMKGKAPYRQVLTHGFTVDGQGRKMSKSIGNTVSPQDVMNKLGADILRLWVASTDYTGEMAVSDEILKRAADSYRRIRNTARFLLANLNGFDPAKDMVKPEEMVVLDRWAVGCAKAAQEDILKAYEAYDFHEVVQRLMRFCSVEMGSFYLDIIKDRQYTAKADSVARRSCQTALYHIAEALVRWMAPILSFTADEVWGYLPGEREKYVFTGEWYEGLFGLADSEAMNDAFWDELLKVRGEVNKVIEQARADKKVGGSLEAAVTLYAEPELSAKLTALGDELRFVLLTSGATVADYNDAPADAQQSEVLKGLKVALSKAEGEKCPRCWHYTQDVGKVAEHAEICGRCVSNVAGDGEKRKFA

Structure (SMILES) | IC50 (Isoleucine--tRNA ligase) [µM] | IC50 (Methionine--tRNA ligase) [µM]
CC[C@H](C)[C@H](N)C(=O)NS(=O)(=O)OC[C@@H]1CC[C@H](n2cnc3c(N)ncnc32)O1 | 6.4 | –
CC[C@H](C)[C@H](N)C(=O)NS(=O)(=O)OC[C@H]1O[C@@H](n2cnc3c(N)ncnc32)[C@H](O)[C@@H]1O | 0.265 | –
CSCC[C@H](N)C(=O)NS(=O)(=O)OC[C@H]1O[C@@H](n2cnc3c(N)ncnc32)[C@H](O)[C@@H]1O | – | 0.083
CSCC[C@H](N)C(=O)NS(=O)(=O)OC[C@H]1O[C@@H](n2cnc3c(N)ncnc32)C[C@@H]1O | – | 110
CSCC[C@H](N)C(=O)NS(=O)(=O)OC[C@@H]1C[C@@H](O)[C@H](n2cnc3c(N)ncnc32)O1 | – | 220
CSCC[C@H](N)C(=O)NS(=O)(=O)O[C@@H]1CC[C@H](n2cnc3c(N)nnnc32)O1 | – | 0.383
CC[C@H](C)[C@H](N)C(=O)NS(=O)(=O)OC[C@@H]1C[C@@H](O)[C@H](n2cnc3c(N)ncnc32)O1 | 35 | –
CC[C@H](C)[C@H](N)C(=O)NS(=O)(=O)O[C@H]1O[C@@H](n2cnc3c(N)ncnc32)C[C@@H]1O | 280 | –
